Six molecules from ChEMBL document CHEMBL3808287, “AXL Inhibitors in Cancer: A Medicinal Chemistry Perspective” (J Med Chem, 2016) can be followed below.

SMILES strings stand for the structures. Bounds are passed on as bounds.

Assay [1] deals with T1, Tyrosine-protein kinase receptor UFO (Homo sapiens, UniProt P30530).
T1 sequence (P30530 whole entry): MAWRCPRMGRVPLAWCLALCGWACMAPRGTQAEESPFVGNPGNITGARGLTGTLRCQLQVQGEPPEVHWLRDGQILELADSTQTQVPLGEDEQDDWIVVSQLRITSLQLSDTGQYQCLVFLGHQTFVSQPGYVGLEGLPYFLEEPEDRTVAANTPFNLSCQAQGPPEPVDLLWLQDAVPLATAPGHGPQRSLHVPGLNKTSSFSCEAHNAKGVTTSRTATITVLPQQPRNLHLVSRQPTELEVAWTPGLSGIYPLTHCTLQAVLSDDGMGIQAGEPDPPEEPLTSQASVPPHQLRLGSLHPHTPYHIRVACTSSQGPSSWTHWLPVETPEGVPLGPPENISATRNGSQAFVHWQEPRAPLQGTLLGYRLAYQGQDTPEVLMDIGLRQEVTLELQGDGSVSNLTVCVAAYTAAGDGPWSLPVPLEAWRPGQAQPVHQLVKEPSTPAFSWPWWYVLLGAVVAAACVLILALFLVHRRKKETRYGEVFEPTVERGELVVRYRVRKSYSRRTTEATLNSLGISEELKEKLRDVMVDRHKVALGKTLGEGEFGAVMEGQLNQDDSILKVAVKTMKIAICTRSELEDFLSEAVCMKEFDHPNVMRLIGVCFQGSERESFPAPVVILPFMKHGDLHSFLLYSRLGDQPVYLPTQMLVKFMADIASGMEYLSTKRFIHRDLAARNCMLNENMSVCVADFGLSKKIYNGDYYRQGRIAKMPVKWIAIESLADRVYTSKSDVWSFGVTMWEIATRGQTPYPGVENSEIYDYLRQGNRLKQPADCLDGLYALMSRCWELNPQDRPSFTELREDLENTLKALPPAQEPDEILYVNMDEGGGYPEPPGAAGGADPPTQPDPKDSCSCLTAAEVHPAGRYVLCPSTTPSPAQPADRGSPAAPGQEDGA
Nature of the assay: Inhibition of AXL (unknown origin) by cell based assay.

Assay [2] has as its target T1, Tyrosine-protein kinase receptor UFO. Nature of the assay: Inhibition of AXL (unknown origin).
Assay [3] shares this target. Nature of the assay: Inhibition of human recombinant AXL expressed in Escherichia coli BL21 infected with T7 phage by qPCR method. (Real-time PCR tracks product formation cycle by cycle.)
The target of assay [4] is Hepatocyte growth factor receptor (Homo sapiens, UniProt P08581). Nature of the assay: Inhibition of human recombinant MET expressed in Escherichia coli BL21 infected with T7 phage by qPCR method.
For assay [5], the target named is T1, Tyrosine-protein kinase receptor UFO. The assay is described as follows: Inhibition of AXL in human GIST cells. The assay is classed as cell-based.
The test system of assay [6] is MDA-MB-231. The assay is described as follows: Antimetastatic activity against human MDA-MB-231-luc-D3H2LN cells xenografted in NCr nu/nu mouse assessed as mouse survival at 125 mg/kg, bid administered daily for 21 days measured on day 22 by bioluminescence imaging analysis. The assay is classed as functional. (In general: Xenograft models place foreign cells or tissue in a host animal.)

Assay [7] addresses T2, Tyrosine-protein kinase receptor TYRO3 (Homo sapiens, UniProt Q06418).
T2 sequence (Q06418 whole entry): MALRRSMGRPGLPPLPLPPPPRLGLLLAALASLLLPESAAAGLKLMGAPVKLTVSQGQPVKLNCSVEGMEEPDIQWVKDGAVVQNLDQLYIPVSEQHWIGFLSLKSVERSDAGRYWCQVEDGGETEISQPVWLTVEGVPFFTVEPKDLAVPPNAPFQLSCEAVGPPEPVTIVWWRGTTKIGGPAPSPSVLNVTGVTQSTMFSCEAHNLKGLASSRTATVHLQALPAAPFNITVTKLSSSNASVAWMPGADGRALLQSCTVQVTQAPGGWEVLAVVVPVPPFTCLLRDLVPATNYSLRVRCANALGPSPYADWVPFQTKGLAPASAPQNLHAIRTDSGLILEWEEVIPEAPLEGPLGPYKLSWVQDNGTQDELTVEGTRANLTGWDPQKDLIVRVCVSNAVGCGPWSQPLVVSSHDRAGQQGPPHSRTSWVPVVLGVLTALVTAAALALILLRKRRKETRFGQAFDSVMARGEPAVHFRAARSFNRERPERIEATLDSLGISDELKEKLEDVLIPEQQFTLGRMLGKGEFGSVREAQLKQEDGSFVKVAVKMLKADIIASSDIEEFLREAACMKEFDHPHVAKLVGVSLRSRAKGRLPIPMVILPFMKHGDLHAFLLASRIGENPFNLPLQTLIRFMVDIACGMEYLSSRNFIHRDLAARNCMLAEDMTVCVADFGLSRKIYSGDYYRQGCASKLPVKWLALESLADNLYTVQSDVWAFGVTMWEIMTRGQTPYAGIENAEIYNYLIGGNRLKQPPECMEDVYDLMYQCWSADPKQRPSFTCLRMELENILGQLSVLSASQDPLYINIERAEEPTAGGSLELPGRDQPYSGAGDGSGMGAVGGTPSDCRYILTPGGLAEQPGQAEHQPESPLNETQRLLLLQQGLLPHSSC
The assay is described as follows: Inhibition of human recombinant TYRO3 by fluorescence polarization assay. (Fluorescence polarisation rises when a labelled molecule tumbles more slowly, as on binding a larger partner.)

In assay [8] the target is Tyrosine-protein kinase ABL1 (Homo sapiens, UniProt P00519). Nature of the assay: Inhibition of human recombinant ABL by fluorescence polarization assay.
Assay [9] has as its target Vascular endothelial growth factor receptor 2 (Homo sapiens, UniProt P35968). The assay is described as follows: Inhibition of VEGFR2 (unknown origin).
For assay [10], the target named is T1, Tyrosine-protein kinase receptor UFO. Nature of the assay: Inhibition of human full length AXL after 4 hrs followed by stimulation with human recombinant Gas6 for 15 minutes by cell based assay.
Assay [11] has the same target. The assay is described as follows: Inhibition of human full length AXL by scintillation counting method in presence of 33P-gammaATP.

Sequence of Hepatocyte growth factor receptor (P08581 whole entry): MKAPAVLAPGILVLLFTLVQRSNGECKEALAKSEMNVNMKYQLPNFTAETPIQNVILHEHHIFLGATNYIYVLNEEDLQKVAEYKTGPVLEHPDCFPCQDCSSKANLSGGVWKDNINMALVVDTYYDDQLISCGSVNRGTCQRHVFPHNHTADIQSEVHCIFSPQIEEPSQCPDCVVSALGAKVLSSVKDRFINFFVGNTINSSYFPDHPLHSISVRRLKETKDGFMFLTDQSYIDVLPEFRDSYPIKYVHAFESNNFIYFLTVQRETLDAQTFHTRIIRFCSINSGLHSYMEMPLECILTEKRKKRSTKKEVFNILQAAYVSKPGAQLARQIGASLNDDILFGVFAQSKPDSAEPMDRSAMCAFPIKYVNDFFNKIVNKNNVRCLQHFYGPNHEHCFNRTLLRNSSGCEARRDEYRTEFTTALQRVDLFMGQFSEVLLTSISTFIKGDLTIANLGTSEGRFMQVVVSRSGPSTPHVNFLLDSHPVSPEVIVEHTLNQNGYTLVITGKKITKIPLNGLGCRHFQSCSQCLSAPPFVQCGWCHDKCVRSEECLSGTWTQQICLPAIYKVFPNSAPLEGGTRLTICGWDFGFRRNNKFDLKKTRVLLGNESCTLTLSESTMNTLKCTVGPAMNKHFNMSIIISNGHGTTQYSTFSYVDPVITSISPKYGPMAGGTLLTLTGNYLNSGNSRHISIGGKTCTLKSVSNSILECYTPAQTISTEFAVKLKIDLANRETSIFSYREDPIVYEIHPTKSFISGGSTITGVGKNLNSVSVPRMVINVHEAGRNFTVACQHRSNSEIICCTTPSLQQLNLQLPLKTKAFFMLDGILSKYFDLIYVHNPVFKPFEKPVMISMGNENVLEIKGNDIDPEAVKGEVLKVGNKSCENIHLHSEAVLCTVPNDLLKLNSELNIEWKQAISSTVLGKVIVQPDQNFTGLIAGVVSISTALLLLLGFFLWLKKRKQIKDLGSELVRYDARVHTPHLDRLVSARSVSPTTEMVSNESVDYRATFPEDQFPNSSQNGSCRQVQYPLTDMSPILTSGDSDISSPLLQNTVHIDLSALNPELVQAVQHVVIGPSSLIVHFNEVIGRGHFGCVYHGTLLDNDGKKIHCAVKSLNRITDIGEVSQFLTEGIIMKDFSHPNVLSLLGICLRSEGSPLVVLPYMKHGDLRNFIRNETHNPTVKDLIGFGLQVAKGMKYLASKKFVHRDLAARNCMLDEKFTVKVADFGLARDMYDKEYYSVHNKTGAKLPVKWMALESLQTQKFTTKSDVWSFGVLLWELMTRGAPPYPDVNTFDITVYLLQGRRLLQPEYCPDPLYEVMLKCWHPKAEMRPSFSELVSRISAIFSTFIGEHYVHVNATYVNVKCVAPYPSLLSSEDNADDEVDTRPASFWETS
Sequence of Tyrosine-protein kinase ABL1 (P00519 whole entry): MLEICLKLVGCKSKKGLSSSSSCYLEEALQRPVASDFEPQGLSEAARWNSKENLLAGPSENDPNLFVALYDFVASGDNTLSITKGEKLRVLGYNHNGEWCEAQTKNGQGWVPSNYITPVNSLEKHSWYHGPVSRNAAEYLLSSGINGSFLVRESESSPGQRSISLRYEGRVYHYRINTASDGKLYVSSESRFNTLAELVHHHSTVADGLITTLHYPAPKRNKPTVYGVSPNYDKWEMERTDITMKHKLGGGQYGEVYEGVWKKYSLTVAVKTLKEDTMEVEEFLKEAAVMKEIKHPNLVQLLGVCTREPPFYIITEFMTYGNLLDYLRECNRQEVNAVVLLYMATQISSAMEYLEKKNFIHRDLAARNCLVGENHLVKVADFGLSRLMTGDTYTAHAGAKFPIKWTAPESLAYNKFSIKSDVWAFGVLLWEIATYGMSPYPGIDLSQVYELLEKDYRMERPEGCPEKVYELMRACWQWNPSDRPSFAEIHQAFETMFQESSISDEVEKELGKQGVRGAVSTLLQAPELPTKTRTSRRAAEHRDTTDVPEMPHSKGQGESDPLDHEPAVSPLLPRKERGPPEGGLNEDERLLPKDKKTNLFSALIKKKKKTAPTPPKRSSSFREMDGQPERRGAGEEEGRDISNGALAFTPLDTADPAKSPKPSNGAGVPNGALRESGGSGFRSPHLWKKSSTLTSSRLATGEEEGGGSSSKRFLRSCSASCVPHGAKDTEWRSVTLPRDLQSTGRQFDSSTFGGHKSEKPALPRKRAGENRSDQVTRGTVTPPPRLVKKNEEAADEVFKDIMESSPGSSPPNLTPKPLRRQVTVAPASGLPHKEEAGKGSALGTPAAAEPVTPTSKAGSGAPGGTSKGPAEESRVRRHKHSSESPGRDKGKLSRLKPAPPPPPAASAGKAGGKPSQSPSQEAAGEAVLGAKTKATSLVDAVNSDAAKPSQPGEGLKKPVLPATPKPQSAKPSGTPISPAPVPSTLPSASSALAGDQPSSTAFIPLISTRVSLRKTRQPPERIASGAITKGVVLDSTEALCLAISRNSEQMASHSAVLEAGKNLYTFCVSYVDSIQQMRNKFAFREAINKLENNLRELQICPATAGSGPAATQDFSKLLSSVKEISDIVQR
Sequence of Vascular endothelial growth factor receptor 2 (P35968 whole entry): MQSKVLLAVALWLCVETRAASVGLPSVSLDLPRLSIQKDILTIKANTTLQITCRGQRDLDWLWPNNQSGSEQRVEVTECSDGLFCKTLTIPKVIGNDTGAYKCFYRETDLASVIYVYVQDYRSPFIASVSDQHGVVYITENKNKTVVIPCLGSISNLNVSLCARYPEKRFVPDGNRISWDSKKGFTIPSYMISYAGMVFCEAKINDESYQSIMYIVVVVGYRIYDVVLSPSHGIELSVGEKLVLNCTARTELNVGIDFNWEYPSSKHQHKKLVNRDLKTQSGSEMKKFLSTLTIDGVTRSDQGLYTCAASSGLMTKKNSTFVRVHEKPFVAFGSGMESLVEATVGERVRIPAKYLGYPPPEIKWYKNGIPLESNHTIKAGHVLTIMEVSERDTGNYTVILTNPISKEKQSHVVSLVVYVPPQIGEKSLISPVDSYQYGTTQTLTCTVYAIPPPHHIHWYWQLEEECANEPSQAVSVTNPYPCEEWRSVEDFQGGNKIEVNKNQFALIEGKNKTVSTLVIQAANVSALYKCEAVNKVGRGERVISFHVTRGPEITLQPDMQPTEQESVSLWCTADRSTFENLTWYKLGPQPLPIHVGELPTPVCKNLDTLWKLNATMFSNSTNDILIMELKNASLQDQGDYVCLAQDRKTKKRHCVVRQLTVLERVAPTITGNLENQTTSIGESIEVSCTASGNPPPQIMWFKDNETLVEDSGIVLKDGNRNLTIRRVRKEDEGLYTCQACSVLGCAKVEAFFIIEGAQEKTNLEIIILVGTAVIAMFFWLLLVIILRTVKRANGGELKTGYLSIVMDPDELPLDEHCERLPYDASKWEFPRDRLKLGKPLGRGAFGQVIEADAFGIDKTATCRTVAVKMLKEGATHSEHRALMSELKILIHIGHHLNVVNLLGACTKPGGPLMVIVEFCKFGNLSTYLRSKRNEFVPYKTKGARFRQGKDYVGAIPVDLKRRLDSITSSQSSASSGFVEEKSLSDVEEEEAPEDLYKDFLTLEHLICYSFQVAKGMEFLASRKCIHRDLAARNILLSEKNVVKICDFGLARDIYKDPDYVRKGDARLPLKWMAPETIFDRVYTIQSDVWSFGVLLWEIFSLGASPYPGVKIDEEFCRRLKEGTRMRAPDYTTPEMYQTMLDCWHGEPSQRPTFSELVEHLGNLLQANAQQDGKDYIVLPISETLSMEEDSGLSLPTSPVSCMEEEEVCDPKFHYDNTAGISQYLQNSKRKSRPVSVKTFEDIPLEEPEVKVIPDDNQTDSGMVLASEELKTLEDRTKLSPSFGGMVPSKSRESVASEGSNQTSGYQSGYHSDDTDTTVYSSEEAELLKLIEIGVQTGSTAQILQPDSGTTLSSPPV

Regarding `Cc1c[nH]c2nc(Nc3ccc(N4CCN(C)CC4)c(F)c3)nc(-c3cccc(CC#N)c3)c12`, the concentration for half-maximal inhibition (IC50) (as a rule, the concentration needed to halve the response being measured) in assay [1] was < 1000 nM; in assay [2] it was 58 nM.

`Cc1c(C(=O)Nc2ccc(Oc3ccnc4[nH]cc(-c5ccccc5)c34)c(F)c2)c(=O)n(-c2ccc(F)cc2)n1C`: the 50% inhibitory concentration (IC50) in assay [1] is < 500 nM; in assay [3], 10 nM; in [4], 48 nM.

With `S=C(NCc1ccc2c(c1)OCO2)N1CCN(c2ncnc3c2oc2ccccc23)CC1` [AMUVATINIB], the IC50 in assay [5] is < 1000 nM.

For `Nc1nc(Nc2ccc3c(c2)CC[C@@H](N2CCCC2)CC3)nn1-c1cc2c(nn1)-c1ccccc1CCC2` [BEMCENTINIB], the survival at 125 mg/kg in assay [6] is > 35%. The IC50 in assay [7] and in [8] was > 700 nM in each case.

For `COCCNCc1ccc(-c2cc3nccc(Oc4ccc(NC(=S)NC(=O)Cc5ccc(F)cc5)cc4F)c3s2)nc1` [GLESATINIB], half-maximal inhibition in assay [9] (IC50) required 1 nM.

With `Cc1ccc(C(=O)Nc2ccc(Oc3cc4cnn(C)c4cc3-c3cn[nH]c3)c(F)c2)c(=O)n1-c1ccc(F)cc1` [MERESTINIB], the values for the IC50 in assay [10] and in assay [11] were 2 nM and 11 nM, respectively.
